{"source": "patent US4528299A", "about": "“1-(2,3-Dimethyl-4-methoxyphenyl)-2-methyl-3-(1-pyrrolidinyl)-1-propanone and anti-spastic use thereof” (priority 1982, dated 1985)", "key": {"mice": {"tested_on": "mice", "assay": "Acute toxicity", "assay_type": "in vivo", "protocol": "(§1) Male mice of STD-ddY strain, weighing 23 to 25 g, were used in groups of 10 animals. The test compounds, suspended or dissolved in 0.5% tragacanth solution, were intraperitoneally administered at a volume of 0.1 ml/10 g body weight. After the administration, the mice were kept for 7 days, and observed for death. The median lethal dose (LD50), the dose which caused death in 50% of animals, were calculated according to the method of Litchfield and Wilcoxon."}, "Acute toxicity": {"assay": "Acute toxicity", "assay_type": "in vivo", "details": "mouse, in vivo, ip, mice; for LD50 at 168 h: 7 days observation; for selectivity ratio: (LD50)/(ED50 of Muscle relaxant effect), i.p., read-out: Safety index", "protocol": "as §1"}, "[1]": {"tested_on": "anemic decerebrate rigidity (α-rigidity)", "assay": "Effect on anemic decerebrate rigidity (α-rigidity), EMG activity of M. triceps brachii, cumulative i.v. injection", "assay_type": "in vivo, Male rats of Wistar strain", "details": "for ED50: Rattus norvegicus, iv, 5 min, cumulative 1.25-20 mg/kg, dose reducing EMG activity to 50%; for ED50 / α-Rigidity reducing effect Duration: rats; for α-Rigidity reducing effect Duration: time from disappearance to reappearance of EMG activities after total dose of 20 mg/kg, i.v.", "protocol": "Anemic decerebrate rigidity is known to be a model showing the abnormal hypertonia. This model was prepared according to the method of Fukuda et al [cf. Japan. J. Pharmacol. 24, 810-813 (1974)]. Male rats of Wistar strain, weighing 250 to 350 g, were used in groups of 5 animals. Under the ether anesthesia, the animal was fixed on its back. After the oesophagus and bilateral common carotid arteries were exposed, the trachea was cannulated and the oesophagus was cut between two placed ligatures. The occipital bone was exposed. The common carotid arteries were ligated bilaterally and a trephined opening was made in the central part of the bone. The dura matter was cut along the basilar artery, and the artery was cauterized with a coagulator of bipolar pincette electrodes (Micro-ID made by Mizuhoika Kogyo Co., Ltd., Japan). After the operation, anesthesia was discontinued. The marked rigidity occurred in the forelimbs within 15 minutes after the operation.\nThe rat was placed on its back and the hindlimbs fixed. Electromyogram (EMG) was recorded by a coaxial needle electrode inserted into the Musculus triceps brachii of the forelimbs. Reference electrode was inserted into the hindlimb muscle. EMG activities obtained from the muscle were amplified, transformed into the square wave pulses with the window discriminator, and fed into integrator, the out-put of which was amplified and recorded by an inkwriting recorder.\nThe test compounds were dissolved in distilled water. After the EMG activities had remained stable over 15 to 30 minutes, the test compounds were cumulatively injected at a 5-minute interval into a cannulated femoral vein. The doses administered were 1.25 mg/kg, 2.5 mg/kg, 5.0 mg/kg, 10 mg/kg and finally 20 mg/kg. The EMG activities were expressed as a percentage of the pre-injection value, and the maximal effect within 5 minutes was measured in each dose. The median effective dose (ED50), the dose which reduced the EMG activity to 50%, was calculated by the method of Litchfield and Wilcoxon. In addition, the time from disappearance to reappearance of EMG activities after total dose of 20 mg/kg was expressed as the duration of the effect."}, "muscle relaxation": {"tested_on": "muscle relaxation", "assay": "Muscle relaxant effect (Traction test)", "assay_type": "in vivo, Male mice of STD-ddY strain", "details": "for ED50: Mus musculus, ip, 0.25 h, i.p., mice, 15 minutes after administration", "protocol": "Traction test was used as an index of the muscle relaxation. Male mice of STD-ddY strain, weighing 20 to 25 g, were used in groups of 5 animals. The test compounds, suspended or dissolved in 0.5% tragacanth solution, were intraperitoneally administered at a volume of 0.1 ml/10 g body weight, and 15 minutes after the administration the muscle relaxant effects were examined according to the method of Courvoisier et al (cf. \"Psychotropic Drugs\", ed. by Garattini, S. and Ghetti, V., Elsevier Pub. Co., Amsterdam, 1957, page 373). The animal was suspended by their forelimbs on a horizontal metal bar with a diameter of 2 mm. The rod was 18 cm above the floor. The animals which could not put their hindlimb on the rod within 5 seconds were judged as a positive (all-or-nothing way). The median effective dose (ED50), the dose which caused the positive effects in 50% of animals, were calculated according to the method of Litchfield and Wilcoxon."}, "[2]": {"tested_on": "anemic decerebrate rigidity (α-rigidity)", "assay": "Effect on anemic decerebrate rigidity (α-rigidity), EMG activity of M. triceps brachii, cumulative i.v. injection", "assay_type": "in vivo, Male rats of Wistar strain"}}}
{"smiles": "COc1ccc(C(=O)C(C)CN2CCCC2)c(C)c1C", "note": "(stereo not drawn) [A, 1-(2,3-dimethyl-4-methoxyphenyl)-2-methyl-3-(1-pyrrolidinyl)-1-propanone]", "values": [{"measurement": "safety index relative to Compound No. 1", "setting": "mice; vs Compound No. 1", "value": "about 1.8 times"}, {"measurement": "safety index relative to Compound No. 3", "setting": "mice; vs Compound No. 3", "value": "about 1.5 times"}, {"measurement": "safety index relative to Compound No. 6", "setting": "mice; vs Compound No. 6, in words", "value": "higher safety index"}, {"measurement": "safety index relative to Compound No. 8", "setting": "mice; vs Compound No. 8, in words", "value": "higher safety index"}, {"measurement": "LD50 at 168 h", "setting": "Acute toxicity", "value": 161, "unit": "mg/kg"}, {"measurement": "selectivity ratio", "setting": "Acute toxicity", "value": 2.35}, {"measurement": "ED50", "setting": "[1]", "value": 2.6, "unit": "mg/kg"}, {"measurement": "α-Rigidity reducing effect Duration", "setting": "[1]", "value": 16.3, "unit": "min"}, {"measurement": "duration of action relative to Compound No. 1", "setting": "[1]; vs Compound No. 1", "value": "about 23 times"}, {"measurement": "potency in the reducing activity of α-rigidity relative to Compound No. 1", "setting": "[1]; vs Compound No. 1", "value": "about 4.7 times"}, {"measurement": "duration of action relative to Compound No. 2", "setting": "[1]; vs Compound No. 2", "value": "about 5.8 times"}, {"measurement": "potency in the reducing activity of α-rigidity relative to Compound No. 2", "setting": "[1]; vs Compound No. 2", "value": "about 4.9 times"}, {"measurement": "potency in α-rigidity reducing activity relative to Compound No. 3", "setting": "[1]; vs Compound No. 3", "value": "about 7.8 times"}, {"measurement": "potency in α-rigidity reducing activity relative to Compound No. 4", "setting": "[1]; vs Compound No. 4", "value": "about 2.7 times"}, {"measurement": "duration of action relative to Compound No. 5", "setting": "[1]; vs Compound No. 5", "value": "about 1.9 times"}, {"measurement": "potency in the reducing activity of α-rigidity relative to Compound No. 5", "setting": "[1]; vs Compound No. 5", "value": "about 6 times"}, {"measurement": "potency in the reducing activity of α-rigidity relative to Compound No. 6", "setting": "[1]; vs Compound No. 6", "value": "about 2.8 times"}, {"measurement": "duration of action relative to Compound No. 6", "setting": "[1]; vs Compound No. 6, in words", "value": "somewhat longer"}, {"measurement": "potency in the reducing activity of α-rigidity relative to Compound No. 7", "setting": "[1]; vs Compound No. 7", "value": "about 6.6 times"}, {"measurement": "potency in the reducing activity of α-rigidity relative to Compound No. 8", "setting": "[1]; vs Compound No. 8", "value": "about 3.7 times"}, {"measurement": "pharmacological activities relative to known analogous compound Nos. 1 to 5", "setting": "[1]; vs compound Nos. 1 to 5, overall conclusion from Tests 1-3", "value": "far greater"}, {"measurement": "pharmacological activities relative to novel analogous compound Nos. 6 to 8", "setting": "[1]; vs compound Nos. 6 to 8, overall conclusion from Tests 1-3", "value": "fairly or far greater"}, {"measurement": "ED50", "setting": "muscle relaxation", "value": 68.5, "unit": "mg/kg"}, {"measurement": "potency in muscle relaxant activity relative to Compound No. 1", "setting": "muscle relaxation; vs Compound No. 1", "value": "about 2.3 times"}, {"measurement": "potency in muscle relaxant activity relative to Compound No. 3", "setting": "muscle relaxation; vs Compound No. 3", "value": "~2.3", "unit": "times"}, {"measurement": "potency in muscle relaxant activity relative to Compound No. 4", "setting": "muscle relaxation; vs Compound No. 4", "value": "~1.8", "unit": "times"}]}
{"smiles": "Cc1ccc(C(=O)C(C)CN2CCCCC2)cc1", "note": "(stereo not drawn) [Compound 1, 2-methyl-1-p-methylphenyl-3-piperidino-1-propanone]", "values": [{"measurement": "LD50 at 168 h", "setting": "Acute toxicity", "value": 210, "unit": "mg/kg"}, {"measurement": "selectivity ratio", "setting": "Acute toxicity", "value": 1.34}, {"measurement": "ED50", "setting": "[1]", "value": 12.3, "unit": "mg/kg"}, {"measurement": "α-Rigidity reducing effect Duration", "setting": "[1]", "value": 0.7, "unit": "min"}, {"measurement": "ED50", "setting": "muscle relaxation", "value": 156, "unit": "mg/kg"}]}
{"smiles": "CCc1ccc(C(=O)C(C)CN2CCCCC2)cc1", "note": "(stereo not drawn) [Compound 2]", "values": [{"measurement": "LD50 at 168 h", "setting": "Acute toxicity", "value": 129, "unit": "mg/kg"}, {"measurement": "selectivity ratio", "setting": "Acute toxicity", "value": 2.01}, {"measurement": "ED50", "setting": "[1]", "value": 12.7, "unit": "mg/kg"}, {"measurement": "α-Rigidity reducing effect Duration", "setting": "[1]", "value": 2.8, "unit": "min"}, {"measurement": "ED50", "setting": "muscle relaxation", "value": 64.2, "unit": "mg/kg"}]}
{"smiles": "COc1ccc(C(=O)C(C)CN2CCCCC2)cc1OC", "note": "(stereo not drawn) [Compound 3]", "values": [{"measurement": "LD50 at 168 h", "setting": "Acute toxicity", "value": 247, "unit": "mg/kg"}, {"measurement": "selectivity ratio", "setting": "Acute toxicity", "value": 1.56}, {"measurement": "ED50", "setting": "[1]", "value": 20.2, "unit": "mg/kg"}, {"measurement": "ED50", "setting": "muscle relaxation", "value": 158, "unit": "mg/kg"}]}
{"smiles": "Cc1cc(C)c(C(=O)C(C)CN2CCCCC2)c(C)c1", "note": "(stereo not drawn) [Compound 4]", "values": [{"measurement": "LD50 at 168 h", "setting": "Acute toxicity", "value": 156, "unit": "mg/kg"}, {"measurement": "selectivity ratio", "setting": "Acute toxicity", "value": 1.27}, {"measurement": "toxicity in rats", "setting": "[2]", "value": "high toxicity in rats"}, {"measurement": "ED50", "setting": "[1]", "value": 6.9, "unit": "mg/kg"}, {"measurement": "ED50", "setting": "muscle relaxation", "value": 123, "unit": "mg/kg"}]}
{"smiles": "Cc1ccc(C(=O)C(C)CN2CCCCC2)cc1C", "note": "(stereo not drawn) [Compound 5]", "values": [{"measurement": "LD50 at 168 h", "setting": "Acute toxicity", "value": 140, "unit": "mg/kg"}, {"measurement": "selectivity ratio", "setting": "Acute toxicity", "value": 2.36}, {"measurement": "ED50", "setting": "[1]", "value": 15.6, "unit": "mg/kg"}, {"measurement": "α-Rigidity reducing effect Duration", "setting": "[1]", "value": 8.8, "unit": "min"}, {"measurement": "ED50", "setting": "muscle relaxation", "value": 59.3, "unit": "mg/kg"}]}
{"smiles": "COc1ccc(C(=O)C(C)CN2CCCCC2)c(C)c1C", "note": "(stereo not drawn) [Compound 6]", "values": [{"measurement": "LD50 at 168 h", "setting": "Acute toxicity", "value": 145, "unit": "mg/kg"}, {"measurement": "selectivity ratio", "setting": "Acute toxicity", "value": 1.87}, {"measurement": "ED50", "setting": "[1]", "value": 7.3, "unit": "mg/kg"}, {"measurement": "α-Rigidity reducing effect Duration", "setting": "[1]", "value": 11.4, "unit": "min"}, {"measurement": "ED50", "setting": "muscle relaxation", "value": 77.7, "unit": "mg/kg"}]}
{"smiles": "COc1ccc(C(=O)CCN2CCCC2)c(C)c1C", "note": "[Compound 7]", "values": [{"measurement": "LD50 at 168 h", "setting": "Acute toxicity", "value": 174, "unit": "mg/kg"}, {"measurement": "selectivity ratio", "setting": "Acute toxicity", "value": 2}, {"measurement": "ED50", "setting": "[1]", "value": 17.2, "unit": "mg/kg"}, {"measurement": "ED50", "setting": "muscle relaxation", "value": 87.1, "unit": "mg/kg"}]}
{"smiles": "CCOc1ccc(C(=O)C(C)CN2CCCC2)c(C)c1C", "note": "(stereo not drawn) [Compound 8]", "values": [{"measurement": "LD50 at 168 h", "setting": "Acute toxicity", "value": 134, "unit": "mg/kg"}, {"measurement": "selectivity ratio", "setting": "Acute toxicity", "value": 1.78}, {"measurement": "ED50", "setting": "[1]", "value": 9.6, "unit": "mg/kg"}, {"measurement": "α-Rigidity reducing effect Duration", "setting": "[1]", "value": 14.8, "unit": "min"}, {"measurement": "ED50", "setting": "muscle relaxation", "value": 75.5, "unit": "mg/kg"}]}
{"smiles": "COc1ccc(C(=O)C(C)CN2CCCC2)c(C)c1C", "note": "(stereo not drawn) [compound (I), 1-(2,3-dimethyl-4-methoxyphenyl)-2-methyl-3-(1-pyrrolidinyl)-1-propanone]", "values": [{"measurement": "toxicity", "setting": "mice; overall conclusion, in words", "value": "low toxicity"}, {"measurement": "central muscle relaxant activities in comparison with the known compounds", "setting": "muscle relaxation; overall conclusion, in words", "value": "highly improved, excellent"}]}
